In patent publication US20230250077A1, “SULFONYLBENZAMIDE DERIVATIVE AND CONJUGATE THEREOF, PREPARATION METHOD THEREFOR AND USE THEREOF” (Jiangsu Hengrui Pharmaceuticals Co., Ltd., priority 2020, published 2023):
Entries after “also recorded” stand apart in the source; their conditions may differ. Marks after values point to notes of the source that are not given here.

Tested on: SD rats
Assay: Toxicity test on SD rats by repeated intravenous administrations for 7 days
Assay type: in vivo, rat
Conditions: 1 mg/kg intravenously qd
Protocol: This experiment was performed to evaluate the toxicity of compound 9 and AZD4320 to SD rats by repeated intravenous administrations for 7 days.
30 SD rats, weighing about 180-200 g and aged 6-7 weeks, half male and half female, purchased from Zhejiang Vital River Laboratory Animal Technology Co., Ltd., SPF grade. Animal certification number: 200917Aazz0619000298 and 20200917Aazz0619000104. Production license number: SCXK (Zhejiang) 2019-0001.
Housing conditions: SPF grade, animals were housed in plastic and transparent rat cages, 2-3 per cage. The room temperature was 20-26° C. and the relative humidity was 40%-70%. The illumination was controlled in a 12/12 light/dark cycle. The granulated feed for mice was freely taken in an unlimited amount.
The rats were randomly divided into the following 3 groups: a vehicle control group, a compound 9-1 mg/kg group and a compound AZD4320-1 mg/kg group, with 6 rats in each group, half male and half female.
Dosage of the test sample for the 7-day toxicity test in rats: 1 mg/kg (qd), for 7 consecutive days. Administration route: intravenously, dosing volume: 10 mL/kg, dosing frequency and dosing period: daily in the morning for 7 days.
Vehicle: 1.5% DMA+98.5% (10% HS-15), wherein DMA is N,N-dimethylacetamide (Shanghai Titan Scientific Co., Ltd., Cat #01013630); and HS-15 is polyethylene glycol stearate 15 (Solutol HS15) (Shanghai Xietai Chemical Co., Ltd., Cat #50253404).
Hitachi 7100 automatic biochemical analyzer
Siemens advia 2120i automatic blood cell analyzer
Sysmex ca1500 automatic coagulation analyzer
The detection results were input and statistically processed by Excel of the computer.
Clinical symptoms, food intake and general visual observation results of dissection were not statistically calculated, and indexes such as body weight, organ weight and clinical examination were counted by using T-test.
SD rats were intravenously administered with 1 mg/kg compound 9 or 1 mg/kg AZD4320 at 5 mL/kg for 7 repeated days.

O=C(NS(=O)(=O)c1ccc(N[C@@H](CSc2ccccc2)C[C@@H]2CCCN2CCO)c(S(=O)(=O)C(F)(F)F)c1)c1ccc(N2CCC([C@@H](O)c3ccccc3-c3ccc(Cl)cc3)CC2)cc1 [Example 2-9, 4-(4-((R)-(4′-chloro-[1,1′-biphenyl]-2-yl)(hydroxy)methyl)piperidin-1-yl)-N-((4-(((R)-1-((S)-1-(2-hydroxyethyl)pyrrolidin-2-yl)-3-(phenylthio)propan-2-yl)amino)-3-((trifluoromethyl)sulfonyl)phenyl)sulfonyl)benzamide]
Clinical observation of the animals during treatment: No significant abnormalities
PLT (10^9/L): 1,258.67* 10^9/L
Effect on platelets (in words) (vs vehicle control, listed as compound 9, 1 mg/kg): slightly reduced but within the background normal range; also recorded: reduces platelets less than the positive control group
